According to patent US8389524B2, “Tricyclic nitrogen containing compounds as antibacterial agents” (Glaxo Group Limited, priority 2007, dated 2013):
Structures can show the parent of a compound that is named as a salt. Where two headings read alike, the source gives them in different places.

Tested on: Mycobacterium tuberculosis H37Rv
Assay: Mycobacterium tuberculosis H37Rv Inhibition Assay (resazurin, MIC)
Assay type: cell-based
Conditions: ATCC 25618 / H37Rv, 144 h
[1] = H37Rv strain (ATCC25618), Middlebrook 7H9+ADC, six days at 37° C., resazurin fluorescence after 48 hours, read-out: MIC value
[2] = read-out: MIC value, H37Rv strain (ATCC25618), Middlebrook 7H9+ADC, six days at 37° C., resazurin fluorescence after 48 hours

Compound | MIC [1] | MIC [2]
O=C1CSc2cc(Br)c(CNC3CCN(CC4Cn5c(=O)ccc6ccc(=O)n4c65)CC3)nc2N1 (centres unmarked) [Example 4, 1-({4-[(7-Bromo-3-oxo-3,4-Dihydro-2H-pyrido[3,2-b][1,4]thiazin-6-yl-methyl)amino-1-piperidinyl}methyl)1,2-dihydro-4H,9H-imidazo[1,2,3-ij]-1,8-naphthyridine-4,9-dione hydrochloride] | < 2 µg/mL | –
CC1(NCc2cc3c(cn2)OCCS3)CCN(C[C@@H]2Cn3c(=O)ccc4ccc(=O)n2c43)CC1 [Example 23, (1R)-1-({4-[(2,3-Dihydro[1,4]oxathiino[2,3-c]pyridin-7-ylmethyl)amino]-4-methyl-1-piperidinyl}methyl)-1,2-dihydro-4H,9H-imidazo[1,2,3-ij]-1,8-naphthyridine-4,9-dione hydrochloride] | < 2 µg/mL | –
O=c1ccc2ccc(=O)n3c2n1C[C@H]3CN1CCC(NCc2cc3c(cn2)OCCS3)CC1 [Example 6A, (1R)-1-({4-[(2,3-Dihydro[1,4]oxathiino[2,3-c]pyridin-7-ylmethyl)amino]-1-piperidinyl}methyl)-1,2-dihydro-4H,9H-imidazo[1,2,3-ij]-1,8-naphthyridine-4,9-dione hydrochloride] | – | < 2 µg/mL
O=c1cnc2ccc(=O)n3c2n1C[C@H]3CN1CCC(NCc2cc3c(cn2)OCS3)CC1 [Example 13A, (1R)-1-({4-[([1,3]Oxathiolo[5,4-c]pyridin-6-ylmethyl)amino]-1-piperidinyl}methyl)-1,2-dihydro-3H,8H-2a,5,8a-triazaacenaphthylene-3,8-dione hydrochloride] | – | < 2 µg/mL
O=c1ccc2ccc(=O)n3c2n1C[C@H]3CN1CCC(NCc2cc3c(cn2)CCC3)CC1 [Example 8, (1R)-1-({4-[(6,7-Dihydro-5H-cyclopenta[c]pyridin-3-ylmethyl)amino]-1-piperidinyl}methyl)-1,2-dihydro-4H,9H-imidazo[1,2,3-ij]-1,8-naphthyridine-4,9-dione hydrochloride] | – | < 2 µg/mL
O=c1ccc2ncc(=O)n3c2n1CC3CN1CCC(NCc2cc3c(cn2)OCCS3)CC1 (racemic) [Example 20, 2-({4-[(2,3-Dihydro[1,4]oxathiino[2,3-c]pyridin-7-ylmethyl)amino]-1-piperidinyl}methyl)-1,2-dihydro-3H,8H-2a,5,8a-triazaacenaphthylene-3,8-dione hydrochloride] | – | < 2 µg/mL
O=c1ccc2ccc(=O)n3c2n1C[C@H]3CN1CCC(NCc2ccc3c(c2)OCCO3)CC1 [Example 30, (1R)-1-({4-[(2,3-Dihydro-1,4-benzodioxin-6-ylmethyl)amino]-1-piperidinyl}methyl)-1,2-dihydro-4H,9H-imidazo[1,2,3-ij]-1,8-naphthyridine-4,9-dione hydrochloride] | < 2 µg/mL | –
N#Cc1cc(CNC2CCN(C[C@@H]3Cn4c(=O)ccc5ncc(=O)n3c54)CC2)cc2c1OCCO2 [Example 42, 7-{[(1-{[(2R)-3,8-Dioxo-1,2-dihydro-3H,8H-2a,5,8a-triazaacenaphthylen-2-yl]methyl}-4-piperidinyl)amino]methyl}-2,3-dihydro-1,4-benzodioxin-5-carbonitrile hydrochloride] | – | < 2 µg/mL
O=c1ccc2ccc(=O)n3c2n1CC3CN1CCC(NCc2cc3c(cn2)OCCS3)CC1 (racemic) [Example 63, 1-[(4-{[(2,3-Dihydro[1,4]oxathiino[2,3-c]pyridin-7-yl)methyl]amino}-1-piperidinyl)methyl]-1,2-dihydro-4H,9H-imidazo[1,2,3-ij]-1,8-naphthyridine-4,9-dione hydrochloride (2:1 mixture of R:S)] | < 2 µg/mL | –
O=c1ccc2ncc(=O)n3c2n1C[C@H]3CN1CCC(NCc2cc3c(cn2)SCO3)CC1 [Example 28, (2R)-2-({4-[([1,3]Oxathiolo[4,5-c]pyridin-6-ylmethyl)amino]-1-piperidinyl}methyl)-1,2-dihydro-3H,8H-2a,5,8a-triazaacenaphthylene-3,8-dione hydrochloride] | < 2 µg/mL | –
O=C1COc2cc(Cl)c(CNC3CCN(C[C@@H]4Cn5c(=O)ccc6ccc(=O)n4c65)CC3)nc2N1 [Example 32, (1R)-1-[(4-{[(7-Chloro-3-oxo-3,4-dihydro-2H-pyrido[3,2-b][1,4]oxazin-6-yl)methyl]amino}-1-piperidinyl)methyl]-1,2-dihydro-4H,9H-imidazo[1,2,3-ij]-1,8-naphthyridine-4,9-dione dihydrochloride] | < 2 µg/mL | –
O=c1ccc2ncc(=O)n3c2n1C[C@H]3CN1CCC(NCc2cc3c(cc2F)OCCO3)CC1 [Example 26, (2R)-2-[(4-{[(7-Fluoro-2,3-dihydro-1,4-benzodioxin-6-yl)methyl]amino}-1-piperidinyl)methyl]-1,2-dihydro-3H,8H-2a,5,8a-triazaacenaphthylene-3,8-dione hydrochloride] | – | ≤ 1 µg/mL
O=c1ccc2ccc(=O)n3c2n1C[C@H]3CN1CCC(NCc2cc3c(cn2)OCS3)CC1 [Example 5A, (1R)-1-({4-[([1,3]Oxathiolo[5,4-c]pyridin-6-ylmethyl)amino]-1-piperidinyl}methyl)-1,2-dihydro-4H,9H-imidazo[1,2,3-ij]-1,8-naphthyridine-4,9-dione hydrochloride] | – | < 2 µg/mL
O=c1ccc2ccc(=O)n3c2n1C[C@H]3CN1CCC(NCc2nc3cccc(F)c3[nH]2)CC1 [Example 46, (1R)-1-[(4-{[(4-Fluoro-1H-benzimidazol-2-yl)methyl]amino}-1-piperidinyl)methyl]-1,2-dihydro-4H,9H-imidazo[1,2,3-ij]-1,8-naphthyridine-4,9-dione dihydrochloride] | – | < 2 µg/mL
O=C1CSc2cnc(CNC3CCN(C[C@@H]4Cn5c(=O)ccc6ccc(=O)n4c65)CC3)nc2N1 [Example 34, (1R)-1-[(4-{[(7-Oxo-6,7-dihydro-1H-pyrimido[5,4-b][1,4]thiazin-2-yl)methyl]amino}-1-piperidinyl)methyl]-1,2-dihydro-4H,9H-imidazo[1,2,3-ij]-1,8-naphthyridine-4,9-dione dihydrochloride] | – | < 2 µg/mL
O=C1CSc2ccc(CNC3CCN(C[C@@H]4Cn5c(=O)ccc6ncc(=O)n4c65)CC3)nc2N1 [Example 29, (2R)-2-[(4-{[(3-Oxo-3,4-dihydro-2H-pyrido[3,2-b][1,4]thiazin-6-yl)methyl]amino}-1-piperidinyl)methyl]-1,2-dihydro-3H,8H-2a,5,8a-triazaacenaphthylene-3,8-dione hydrochloride] | < 2 µg/mL | –
O=c1cnc2ccc(=O)n3c2n1C[C@H]3CN1CCC(NCc2cc3c(cn2)OCCC3)CC1 [Example 37, (1R)-1-({4-[(3,4-Dihydro-2H-pyrano[2,3-c]pyridin-6-ylmethyl)amino]-1-piperidinyl}methyl)-1,2-dihydro-3H,8H-2a,5,8a-triazaacenaphthylene-3,8-dione hydrochloride] | – | < 2 µg/mL
O=c1ccc2ccc(=O)n3c2n1C[C@H]3CN1CCC(NCc2cc(F)c3c(c2)OCCO3)CC1 [Example 31, (1R)-1-[(4-{[(8-Fluoro-2,3-dihydro-1,4-benzodioxin-6-yl)methyl]amino}-1-piperidinyl)methyl]-1,2-dihydro-4H,9H-imidazo[1,2,3-ij]-1,8-naphthyridine-4,9-dione hydrochloride] | < 2 µg/mL | –
O=c1ccc2ncc(=O)n3c2n1C[C@H]3CN1CCC(NCc2ccc3nsnc3c2)CC1 [Example 25, (2R)-2-({4-[(2,1,3-Benzothiadiazol-5-ylmethyl)amino]-1-piperidinyl}methyl)-1,2-dihydro-3H,8H-2a,5,8a-triazaacenaphthylene-3,8-dione hydrochloride] | – | ≤ 1 µg/mL
O=c1cnc2ccc(=O)n3c2n1C[C@H]3CN1CCC(NCc2ccc3c(c2)OCCO3)CC1 [Example 44, (1R)-1-({4-[(2,3-Dihydro-1,4-benzodioxin-6-ylmethyl)amino]-1-piperidinyl}methyl)-1,2-dihydro-3H,8H-2a,5,8a-triazaacenaphthylene-3,8-dione hydrochloride] | – | < 2 µg/mL
O=c1ccc2ncc(=O)n3c2n1C[C@H]3CN1CCC(NCc2cc3c(cn2)OCCS3)CC1 [Example 19A, (2R)-2-({4-[(2,3-Dihydro[1,4]oxathiino[2,3-c]pyridin-7-ylmethyl)amino]-1-piperidinyl}methyl)-1,2-dihydro-3H,8H-2a,5,8a-triazaacenaphthylene-3,8-dione hydrochloride] | – | < 2 µg/mL
O=c1ccc2ccc(=O)n3c2n1C[C@H]3CN1CCC(NCc2cc3c(cn2)CCCC3)CC1 [Example 7, (1R)-1-({4-[(5,6,7,8-Tetrahydro-3-isoquinolinylmethyl)amino]-1-piperidinyl}methyl)-1,2-dihydro-4H,9H-imidazo[1,2,3-ij]-1,8-naphthyridine-4,9-dione hydrochloride] | – | < 2 µg/mL
O=c1cnc2ccc(=O)n3c2n1C[C@H]3CN1CCC(NCc2cc3c(cn2)OCCS3)CC1 [Example 14, (1R)-1-({4-[(2,3-Dihydro-[1,4]oxathiino[2,3-c]pyridin-7-ylmethyl)amino]-1-piperidinyl}methyl)-1,2-dihydro-3H,8H-2a,5,8a-triazaacenaphthylene-3,8-dione hydrochloride] | – | < 2 µg/mL
CC1(NCc2cc3c(cn2)OCS3)CCN(C[C@@H]2Cn3c(=O)ccc4ccc(=O)n2c43)CC1 [Example 24, (1R)-1-({4-Methyl-4-[([1,3]oxathiolo[5,4-c]pyridin-6-ylmethyl)amino]-1-piperidinyl}methyl)-1,2-dihydro-4H,9H-imidazo[1,2,3-ij]-1,8-naphthyridine-4,9-dione hydrochloride] | < 2 µg/mL | –
O=c1ccc2ncc(=O)n3c2n1C[C@H]3CN1CCC(NCc2ccc3c(c2)OCCO3)CC1 [Example 40, (2R)-2-({4-[(2,3-Dihydro-1,4-benzodioxin-6-ylmethyl)amino]-1-piperidinyl}methyl)-1,2-dihydro-3H,8H-2a,5,8a-triazaacenaphthylene-3,8-dione hydrochloride] | – | < 2 µg/mL
O=c1ccc2ccc(=O)n3c2n1C[C@H]3CN1CCC(NCc2ccc3c(c2)OCCC3)CC1 [Example 50, (1R)-1-({4-[(3,4-Dihydro-2H-chromen-7-ylmethyl)amino]-1-piperidinyl}methyl)-1,2-dihydro-4H,9H-imidazo[1,2,3-ij]-1,8-naphthyridine-4,9-dione hydrochloride] | – | < 2 µg/mL
